Source: US7932249B2, “Olanzapine pamoate dihydrate” (Eli Lilly and Company, priority 2005, dated 2011)

What was measured:
Format in all cases: physicochemical
[1] = In vitro dissolution test at higher paddle speed (100 rpm); details: 100 rpm paddle speed, 0.05% CTAB pH 6.8 USP buffer, 37° C.
Method: Another dissolution experiment was performed in order to ensure that the media conditions used to generate the profiles in Table 4 were not solubility limiting. This experiment was performed using the same samples and media conditions but at a higher paddle speed to provide the data listed in Table 5.

[2] = Solubility in aqueous solution (comparative statement)
[3] = Comparative in vitro dissolution test, 50 rpm paddle speed; details: for Average % Olanzapine Release (n = 3): USP Apparatus 2, 50 rpm, 0.05% CTAB pH 6.8 USP buffer, 37° C., 1000 mL
Method: In-vitro dissolution testing was performed to compare the olanzapine release rates for olanzapine pamoate monohydrate and the olanzapine pamoate dihydrate.

SMILES | % Olanzapine Release (n = 1) ([1]; 24 hrs) [%] | % Olanzapine Release (n = 1) ([1]; 36 hrs) [%] | Solubility in aqueous solution compared with olanzapine pamoate monohydrate [2] | Average % Olanzapine Release (n = 3) ([3]; 0.25 hr) [%] | Average % Olanzapine Release (n = 3) ([3]; 0.5 hr) [%] | Average % Olanzapine Release (n = 3) ([3]; 0.75 hr) [%] | Average % Olanzapine Release (n = 3) ([3]; 1 hr) [%] | Average % Olanzapine Release (n = 3) ([3]; 2 hrs) [%] | Average % Olanzapine Release (n = 3) ([3]; 4 hrs) [%] | Average % Olanzapine Release (n = 3) ([3]; 6 hrs) [%] | Average % Olanzapine Release (n = 3) ([3]; 24 hrs) [%] | Release rate of olanzapine compared with olanzapine pamoate monohydrate ([3]; aqueous conditions of Table 3, 50 rpm)
Cc1cc2c(s1)Nc1ccccc1N=C2N1CCN(C)CC1.O.O.O=C(O)c1cc2ccccc2c(Cc2c(O)c(C(=O)O)cc3ccccc23)c1O [Olanzapine Pamoate Dihydrate, 2-methyl-4-(4-methyl-1-piperazinyl)-10H-thieno[2,3-b][1,5]benzodiazepine pamoate dihydrate] | 95 | 97 | substantially less soluble in aqueous solution than olanzapine pamoate monohydrate | 19 | 26 | 30 | 33 | 40 | 45 | 47 | 59 | substantially lower release rate of olanzapine than the olanzapine pamoate monohydrate
Cc1cc2c(s1)Nc1ccccc1N=C2N1CCN(C)CC1.O=C(O)c1cc2ccccc2c(Cc2c(O)c(C(=O)O)cc3ccccc23)c1O [Olanzapine Pamoate Monohydrate, 2-methyl-4-(4-methyl-1-piperazinyl)-10H-thieno[2,3-b][1,5]benzodiazepine pamoate, reference compound] | 99 | 99 |  | 27 | 39 | 46 | 52 | 62 | 73 | 77 | 83 | 
